“And” between values parts separate entries of the source, which are not always exact repeats. Identical values can stand only once.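 These data come from cells grown in 96-well plates and exposed to compound for 48 hours at five concentrations. Here, GI50 denotes the concentration required for 50% inhibition of growth. TGI marks complete inhibition of growth.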
Tests used:
Assay in all cases: inhibition of tumour cell growth, NCI panel, 48 h
OVCAR-8 ovarian = system: OVCAR-8 ovarian
HS 578T breast = system: HS 578T breast
NCI-H23 lung = system: NCI-H23 lung
CAKI-1 renal = system: CAKI-1 renal
HCT-15 colon = system: HCT-15 colon
SNB-75 CNS = system: SNB-75 CNS
BT-549 breast = system: BT-549 breast
786-0 renal = system: 786-0 renal

Row | Structure (SMILES) | GI50 (OVCAR-8 ovarian) | TGI (OVCAR-8 ovarian) | GI50 (HS 578T breast) | TGI (HS 578T breast) | GI50 (NCI-H23 lung) | TGI (NCI-H23 lung) | GI50 (CAKI-1 renal) | TGI (CAKI-1 renal) | GI50 (HCT-15 colon) | TGI (HCT-15 colon) | GI50 (SNB-75 CNS) | TGI (SNB-75 CNS) | GI50 (BT-549 breast) | TGI (BT-549 breast) | GI50 (786-0 renal) | TGI (786-0 renal)
1 | C#COc1cccc(Nc2ncnc3ncc(NC(=O)CCl)cc23)c1 | > 14.5 µM | > 62.5 µM | > 62.5 µM | > 62.5 µM | > 62.5 µM | > 62.5 µM | > 15.2 µM | > 62.5 µM | > 14 µM | > 62.5 µM | > 60.1 µM | > 62.5 µM | > 62.5 µM | > 62.5 µM | 2.71 µM | > 62.5 µM
2 | COc1cc([C@@H]2c3cc4c(cc3[C@@H](O[C@@H]3O[C@@H]5CO[C@@H](c6cccs6)O[C@H]5[C@H](O)[C@H]3O)[C@H]3COC(=O)[C@H]23)OCO4)cc(OC)c1O | 0.34 µM | 2.51 µM | 2.03 µM | 15.3 µM | 0.179 µM | 2.6 µM | 0.557 µM | 24.2 µM |  | > 55.9 µM | 0.104 µM | 1.56 µM | 0.344 µM | 4.37 µM | 0.193 µM | 1.34 µM
3 | COC(=O)Nc1nc2cc3c(cc2s1)OCCO3 | > 50 µM | > 50 µM | > 50 µM | > 50 µM | > 50 µM | > 50 µM | > 50 µM | > 50 µM | > 50 µM | > 50 µM | > 50 µM | > 50 µM | > 50 µM | > 50 µM | > 50 µM | > 50 µM
4 | Nc1ccccc1NC(=O)c1ccc(CN2CCC/C(=C\c3cccc(Cl)c3)C2=O)cc1 | 0.334 µM | > 100 µM | 0.321 µM | > 100 µM | 0.342 µM | 24.2 µM |  |  | 0.0419 µM | > 100 µM | 0.284 µM | 9.04 µM | 1.4 µM | 5.52 µM | 0.366 µM | 2.17 µM
5 | C/C(=C\CCc1ccoc1)CC/C=C(\C)CCCN1CCC(CO)CC1 | 5.19 µM | 19 µM | 2.6 µM | 8.08 µM | 3.78 µM | 14.7 µM | 4.26 µM | 16.5 µM | 3.07 µM | 12 µM | 2.1 µM | 7.79 µM | 2.77 µM | 12.1 µM | 2.35 µM | 5.37 µM
6 | COc1c(CNC(=O)CCl)cc2[nH]c(C)cc2c1CNC(=O)CCl | 4.73 µM | 60.4 µM | 4.97 µM | 76.8 µM | 7.14 µM | 31.3 µM | 6.73 µM | 37 µM | 14.9 µM | > 100 µM | 6.43 µM | 33 µM | 17 µM | 35.2 µM | 3.8 µM | 15.4 µM
7 | CC[C@H](C)n1cc(C)c2c(C(=O)NCc3c(C)cc(C)[nH]c3=O)cc(-c3ccc(N4CCNCC4)nc3)cc21 | 18.5 µM and 17.7 µM | 37.4 µM and 37.6 µM | 13.6 µM and 13.2 µM | 30.9 µM and 33.1 µM | 18 µM and 17.6 µM | 34.3 µM and 34 µM | 16.1 µM and 15.4 µM | 29.6 µM and 28.8 µM | 15.9 µM and 12.6 µM | 30.7 µM and 26.5 µM | 6.12 µM and 3.63 µM | 19.8 µM and 17.6 µM | 15.4 µM and 13.5 µM | 30.5 µM and 27.7 µM | 10.6 µM and 11.7 µM | 24.4 µM and 25.2 µM
8 | Cc1cc(-c2nc(-c3ccc(OC(F)(F)F)cc3)no2)nn1Cc1ccnc(N2CCN(C3CC3)CC2)c1 | > 44.4 µM | > 100 µM | > 38.4 µM | > 72.6 µM | < 0.01 µM | > 86.3 µM | 6.3 µM | > 100 µM | 3.84 µM | > 62 µM | > 59.6 µM | > 100 µM |  | > 52.6 µM | 13.5 µM | > 100 µM
9 | COc1ccc(Cc2cnc(NC(=O)c3sc4ccccc4c3Cl)s2)cc1 | 0.508 µM | > 100 µM | 0.336 µM | > 100 µM | 0.647 µM | > 100 µM | 0.487 µM | > 100 µM | 0.378 µM | > 100 µM | 0.2 µM | > 100 µM | 1.18 µM | > 100 µM | 0.652 µM | > 100 µM
10 | c1ccc(-c2nn(-c3ccccc3)[n+](-c3cccc4ccccc34)n2)cc1 | 1.85 µM | 54.5 µM | 1.77 µM | > 100 µM | 0.994 µM | 12.8 µM | 37.1 µM | > 100 µM | 31.5 µM | > 100 µM | 1.94 µM | 14.8 µM | 1.85 µM | 17.9 µM | 5.1 µM | 29.3 µM
11 | CCOC(=O)C1=C(C)NC2SC(=O)/C(=C\c3ccccc3)N2C1c1ccccc1 (stereo unspecified) | > 100 µM | > 100 µM | > 100 µM | > 100 µM | > 100 µM | > 100 µM | > 100 µM | > 100 µM | > 100 µM | > 100 µM | > 100 µM | > 100 µM | > 100 µM | > 100 µM | > 100 µM | > 100 µM
12 | Oc1cc(O)c2c(=S)cc(-c3ccc(Cl)cc3)oc2c1 | 3.3 µM | 14.9 µM | 3.56 µM | 40.3 µM | 2.06 µM | 8.8 µM | 2.95 µM | 19.1 µM | 0.397 µM | 11.9 µM | 2.23 µM | 13.8 µM | 3.38 µM | 12.6 µM | 7.12 µM | 22.9 µM
13 | C=C1C(=O)O[C@@H]2C[C@@H]1CC[C@@]1(C)O[C@@H]1CC[C@@]1(C)O[C@@H]1CC[C@@]2(C)O | 29 µM | > 100 µM | 21.6 µM | 61.2 µM | 1.58 µM | 3.14 µM | 22.7 µM | 72.8 µM | 24 µM | 70.1 µM |  |  | 22.1 µM | 59.6 µM | 19.2 µM | 42.2 µM
14 | COC(=O)C1CCC(Nc2cccc(C(F)(F)F)c2)=N1 (stereo unspecified) |  | > 100 µM |  |  |  | > 100 µM |  | > 100 µM |  | > 100 µM |  | > 100 µM |  |  |  | > 100 µM
15 | COC(=O)[C@@]1(C)CC[C@]2(C)CC[C@]3(C)C4=CC=C5C(=CC(=O)C(O)=C5C)[C@]4(C)CC[C@@]3(C)[C@@H]2C1 |  |  | 0.289 µM | 1.52 µM | 0.235 µM | 0.637 µM |  |  | 0.171 µM | 0.421 µM | 0.313 µM | 0.854 µM | 0.36 µM | 0.889 µM | 0.172 µM | 0.315 µM
16 | N#CC(C#N)=CSc1ccccc1 |  | 37.1 µM |  |  |  | > 100 µM |  | 74.1 µM |  | > 100 µM |  | 74.8 µM |  |  |  | 34.5 µM
